According to patent publication US20140357713A1, “ANTIMICROBIAL COMPOUNDS AND METHODS OF USE” (NexMed Holdings, Inc., priority 2012, published 2014):
Read-outs that look alike come from different tables or passages of the source.

Experiments:
[1] = system: Candida albicans (ATCC 90029); assay: Time kill study, Example 33 (0 to 5 min); type: cell-based; conditions: 1×MIC
Method in brief: (§1)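 Performed per CLSI guidelines. Strain suspensions prepared as for MIC testing were mixed with compound solution in equal volume; samples taken at 0 min, 30 sec, 1 min and 5 mins were diluted in test medium, streaked on agar, and colonies counted after 24 to 48 hrs to give viable counts in Log10 CFU/mL.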

[2] = system: Pseudomonas aeruginosa (ATCC 27853); assay: Time kill study, Example 33 (0 to 5 min); type: cell-based; conditions: 1×MIC
Method in brief: as §1

[3] = system: Staphylococcus aureus (ATCC 29213); assay: Time kill study, Example 33 (0 to 5 min); type: cell-based; conditions: 1×MIC
Method in brief: as §1

[4] = system: Escherichia coli (ATCC 25922); assay: Time kill study, Example 33 (0 to 5 min); type: cell-based; conditions: 1×MIC
Method in brief: as §1

Escherichia coli = assay: Extended time kill study, Example 34 (0 to 24 h); type: cell-based
Method in brief: (§2)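 Strain suspensions prepared as for MIC testing were mixed 1:1 with compound solution at higher multiples of MIC. Samples taken over 0 to 24 h were diluted in test medium and plated on agar, and colonies were counted after 24–48 h incubation.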

Staphylococcus aureus = assay: Extended time kill study, Example 34 (0 to 24 h); type: cell-based
Method in brief: as §2

[5] = system: Candida albicans (ATCC 90029); assay: Minimum inhibitory concentration (MIC) assay, Example 33; type: cell-based; conditions: Candida albicans
Method in brief: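 Broth microdilution per CLSI guidelines in RPMI 1640; inoculum set to OD530 0.08–0.13, diluted 1:50 then 1:20 to 2× strength and mixed 1:2 with 2-fold serial compound dilutions. Incubated at 35° C; MIC read per CLSI.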

Compound: CCCCCCCCCCCCOC(=O)C(C)NCCO.Cl (centres unmarked) [Nex-61, Dodecyl 2-((2-hydroxyethyl)amino)propanoate hydrochloride]
- melting point: 134 to 139 °C
- Viable counts, Candida albicans time kill study ([1]; 0.5 min): 5.19 Log10 CFU/mL
- Viable counts, Candida albicans time kill study ([1]; 1 min): 5.36 Log10 CFU/mL
- Viable counts, Candida albicans time kill study ([1]; 5 min): 5.3 Log10 CFU/mL
- Viable counts, Candida albicans time kill study ([1]; time 0): 5.23 Log10 CFU/mL
- Viable counts, Pseudomonas aeruginosa time kill study ([2]; 0.5 min): 4 Log10 CFU/mL
- Viable counts, Pseudomonas aeruginosa time kill study ([2]; 1 min): <3.70 Log10 CFU/mL
- Viable counts, Pseudomonas aeruginosa time kill study ([2]; 5 min): <3.52 Log10 CFU/mL
- Viable counts, Pseudomonas aeruginosa time kill study ([2]; time 0): 5.71 Log10 CFU/mL
- Viable counts, Staphylococcus aureus time kill study ([3]; 0.5 min): 6.15 Log10 CFU/mL
- Viable counts, Staphylococcus aureus time kill study ([3]; 1 min): 6.07 Log10 CFU/mL
- Viable counts, Staphylococcus aureus time kill study ([3]; 5 min): 5.54 Log10 CFU/mL
- Viable counts, Staphylococcus aureus time kill study ([3]; time 0): 6.38 Log10 CFU/mL
- Viable counts, Escherichia coli time kill study ([4]; 0.5 min): 5.54 Log10 CFU/mL
- Viable counts, Escherichia coli time kill study ([4]; 1 min): 5.61 Log10 CFU/mL
- Viable counts, Escherichia coli time kill study ([4]; 5 min): 4.9 Log10 CFU/mL
- Viable counts, Escherichia coli time kill study ([4]; time 0): 5.78 Log10 CFU/mL
- Viable counts, Escherichia coli time kill study (Escherichia coli; 1 × MIC, 1 h): 1.70 Log10 CFU/mL
- Viable counts, Escherichia coli time kill study (Escherichia coli; 1 × MIC, 2 h): 1.60 Log10 CFU/mL
- Viable counts, Escherichia coli time kill study (Escherichia coli; 1 × MIC, 4 h): 3.16 Log10 CFU/mL
- Viable counts, Escherichia coli time kill study (Escherichia coli; 1 × MIC, 6 h): 4.38 Log10 CFU/mL
- Viable counts, Escherichia coli time kill study (Escherichia coli; 1 × MIC, 24 h): 7.75 Log10 CFU/mL
- Viable counts, Escherichia coli time kill study (Escherichia coli; 1×MIC, time 0): 5.08 Log10 CFU/mL
- Viable counts, Escherichia coli time kill study (Escherichia coli; 2 × MIC, 1 h): <1 Log10 CFU/mL
- Viable counts, Escherichia coli time kill study (Escherichia coli; 2 × MIC, 2 h): <1 Log10 CFU/mL
- Viable counts, Escherichia coli time kill study (Escherichia coli; 2 × MIC, 4 h): <1 Log10 CFU/mL
- Viable counts, Escherichia coli time kill study (Escherichia coli; 2 × MIC, 6 h): <1 Log10 CFU/mL
- Viable counts, Escherichia coli time kill study (Escherichia coli; 2 × MIC, 24 h): <1 Log10 CFU/mL
- Viable counts, Escherichia coli time kill study (Escherichia coli; 2 × MIC, time 0): 5.03 Log10 CFU/mL
- Viable counts, Escherichia coli time kill study (Escherichia coli; 4 × MIC, 1 h): <1 Log10 CFU/mL
- Viable counts, Escherichia coli time kill study (Escherichia coli; 4 × MIC, 2 h): <1 Log10 CFU/mL
- Viable counts, Escherichia coli time kill study (Escherichia coli; 4 × MIC, 4 h): <1 Log10 CFU/mL
- Viable counts, Escherichia coli time kill study (Escherichia coli; 4 × MIC, 6 h): <1 Log10 CFU/mL
- Viable counts, Escherichia coli time kill study (Escherichia coli; 4 × MIC, 24 h): <1 Log10 CFU/mL
- Viable counts, Escherichia coli time kill study (Escherichia coli; 4 × MIC, time 0): 5.05 Log10 CFU/mL
- Viable counts, Staphylococcus aureus time kill study (Staphylococcus aureus; 1 × MIC, 1 h): 5 Log10 CFU/mL
- Viable counts, Staphylococcus aureus time kill study (Staphylococcus aureus; 1 × MIC, 2 h): <3 Log10 CFU/mL
- Viable counts, Staphylococcus aureus time kill study (Staphylococcus aureus; 1 × MIC, 4 h): <3 Log10 CFU/mL
- Viable counts, Staphylococcus aureus time kill study (Staphylococcus aureus; 1 × MIC, 6 h): <3 Log10 CFU/mL
- Viable counts, Staphylococcus aureus time kill study (Staphylococcus aureus; 1 × MIC, 24 h): <1 Log10 CFU/mL
- Viable counts, Staphylococcus aureus time kill study (Staphylococcus aureus; 1×MIC, time 0): 6.14 Log10 CFU/mL
- Viable counts, Staphylococcus aureus time kill study (Staphylococcus aureus; 2 × MIC, 1 h): <3 Log10 CFU/mL
- Viable counts, Staphylococcus aureus time kill study (Staphylococcus aureus; 2 × MIC, 2 h): <3 Log10 CFU/mL
- Viable counts, Staphylococcus aureus time kill study (Staphylococcus aureus; 2 × MIC, 4 h): <3 Log10 CFU/mL
- Viable counts, Staphylococcus aureus time kill study (Staphylococcus aureus; 2 × MIC, 6 h): <3 Log10 CFU/mL
- Viable counts, Staphylococcus aureus time kill study (Staphylococcus aureus; 2 × MIC, 24 h): <1 Log10 CFU/mL
- Viable counts, Staphylococcus aureus time kill study (Staphylococcus aureus; 2 × MIC, time 0): 6.20 Log10 CFU/mL
- Viable counts, Staphylococcus aureus time kill study (Staphylococcus aureus; 4 × MIC, 1 h): <3 Log10 CFU/mL
- Viable counts, Staphylococcus aureus time kill study (Staphylococcus aureus; 4 × MIC, 2 h): <3 Log10 CFU/mL
- Viable counts, Staphylococcus aureus time kill study (Staphylococcus aureus; 4 × MIC, 4 h): <3 Log10 CFU/mL
- Viable counts, Staphylococcus aureus time kill study (Staphylococcus aureus; 4 × MIC, 6 h): <3 Log10 CFU/mL
- Viable counts, Staphylococcus aureus time kill study (Staphylococcus aureus; 4 × MIC, 24 h): <1 Log10 CFU/mL
- Viable counts, Staphylococcus aureus time kill study (Staphylococcus aureus; 4 × MIC, time 0): 6.18 Log10 CFU/mL
- MIC ([5]; ATCC90029, Table 19 summary, read-out: MIC): 12.5 mg/L
- MIC ([5]; ATCC90029, n = 1, read-out: MIC Candida albicans): 12.5 mg/L
- MIC ([5]; ATCC90029, n = 2, read-out: MIC Candida albicans): 12.5 mg/L
